Literature values as cited in US20260102351A1, “LYOPHILIZED FORMULATION OF CROFELEMER AND METHODS OF TREATMENT USING THE SAME” (priority 2022, published 2026).

Details: human, in vivo

Crofelemer
absorption from the GI tract: little or no absorption | systemic bioavailability in humans: virtually no systemic bioavailability | tolerability: well tolerated
